Experimental data reported in publication PMC8791944, “GLUT3 inhibitor discovery through in silico ligand screening and in vivo validation in eukaryotic expression systems” (Scientific Reports, 2022).

tested on: Caco-2 (colon cancer) cells; assay: MTT cancer cell viability assay, Caco-2; format: cell-based; conditions: Homo sapiens, Caco-2, 48 h
Protocol: A possible therapeutic application of GLUT3 inhibitors is in oncology, especially for cancers in which GLUT3 is a poor prognosis marker. We tested the effect of GLUT3 inhibitors on the cell viability of several different cancer lines: myeloid leukemia (HL60 and U937), lung cancer (A549), colorectal adenocarcinoma (Caco-2), breast cancer (MCF7), hepatocellular carcinoma (HepG2), and choriocarcinoma (BeWo) cells. GLUT3 inhibitors, at five different concentrations, ranging from 2 to 100 µM, were incubated with cancer cells for 48 h. Then, cell viability was assessed with the MTT assay. […] G3iC and G3iD also affected the leukemia cell lines but at double the concentrations of G3iB and G3iE. […] G3iB had some cytotoxic activity (CC50 < 50 µM) against the highest number of cancer cell lines (HL60, U937, A549, HepG2, and MCF7).
Cancer cell viability in the presence of GLUT3 inhibitors was assayed using the MTT Cell Viability Kit (Biotium Inc, Freemont, CA) according to manufacturer’s instructions. Cancer cells were grown in the corresponding medium, at 37 °C and 5% CO2 in a humidified incubator. The media (Gibco) for leukemia cells (HL60 and U937), A549, MCF7, BeWo, and HepG2 cells were RPMI 1640, Ham’s F-12K, DMEM:F-12, Ham’s F-12K, and EMEM, respectively, all supplemented with 10% (v/v) fetal bovine serum (HyClone). Caco-2 cells were grown in EMEM supplemented with 20% (v/v) fetal bovine serum. Cells were detached from the culture flasks with Accutase (Innovative Cell Technologies, Inc., San Diego, CA) according to manufacturer’s instructions. Cells were seeded in 96-well plates, at a density of ~ 30,000 cells/well (in 100 µl fresh media) and incubated with varying concentrations of GLUT3 inhibitors for 48 h, at 37 °C and 5% CO2 in a humidified incubator. The inhibitors were dissolved in DMSO, at 100× the final concentration, so that 1 µl of the stock inhibitor concentration was added per well, making the final DMSO concentration 1% (v/v). Therefore, controls for 100% cell viability were cells with 1% (v/v) DMSO without the inhibitors. Controls for 0% cell viability were cells treated with 0.3% (v/v) Tween 20. For MTT assay, 10 µl of MTT reagent was added in each well followed by 3–4 h incubation at 37 °C and 5% CO2 in a humidified incubator. After thoroughly mixing in 200 µl DMSO in each well, the plates were put into a plate reader (BioTek Synergy H1), and the absorbances at 570 nm and 630 nm were measured with Gen5 program (BioTek Inc.). The experimental values represent Abs570 nm-Abs630 nm with each inhibitor condition and control being the average of three wells.
Supplementary Figure S8. Effect of GLUT3 inhibitors on the viability of various cancer cell lines. Cell viability was determined by MTT assay in A549 (lung cancer), BeWo (choriocarcinoma), Caco-2 (colon cancer), HepG2 (liver cancer), HL-60 (leukemia), MCF7 (breast cancer), and U937 (histiocytic lymphoma) cell lines. GLUT3 inhibitors at concentrations of 2, 5, 10, 20, 50, and 100 µM were incubated with cells in 96-well plates for 48 hours before the addition of the MTT reagent.

For `COc1ccccc1-n1c(/C=C/c2ccc(O)cc2)nc2ccc(Br)cc2c1=O` [G3iB, 6-bromo-2-[(E)-2-(4-hydroxyphenyl)ethenyl]-3-(2-methoxyphenyl)quinazolin-4(3H)-one], the CC50 was greater than 50 µM.

same assay, conditions: Homo sapiens, Caco-2; Caco2, 48 h, MTT; read-out: CC50

`CC(=O)Nc1ccc(S(=O)(=O)Nc2ccc(Nc3cc(N(C)C)nc(C)n3)cc2)cc1` [G3iA, N-(4-{[(4-{[6-(dimethylamino)-2-methylpyrimidin-4-yl]amino}phenyl)amino]sulfonyl}phenyl)acetamide] and `O=C(Nc1cccc(Cl)c1)c1cccc(NC(=O)c2cccc([N+](=O)[O-])c2)c1` [G3iE, N-{3-[(3-chloroanilino)carbonyl]phenyl}-3-nitrobenzamide] cannot be ordered by CC50: greater than 100 µM for the first, greater than 50 µM for the second.

`Cc1cccnc1OC1CCN(c2cc(N3CCCC3CO)ncn2)CC1` (stereo not drawn) [G3iC] and `Cc1ccccc1CN(Cc1nnc(C(C)(C)C)o1)c1ccc2nc(O)[nH]c2c1` [G3iF] cannot be ordered by CC50: greater than 100 µM for the first, greater than 100 µM for the second.

With `Cc1cc(NC(=O)CCC2Cc3ccccc3NC2=O)nc(-c2ccccc2)n1` (stereo not drawn) [G3iD] the CC50 was greater than 100 µM.
